Patent EP3789378A1, “PIPERIDINES OR PIPERIDONES SUBSTITUTED WITH UREA AND HETEROARYL” (Grünenthal GmbH, priority 2019, dated 2021)

target: T1, h FPR2 (Homo sapiens, UniProt P25090); test: Agonistic activity in hFPR2-Aq-CHO cells (FLIPR Calcium 5 fluorescence assay); assay type: cell-based; conditions: 11 point half log dilution, final assay concentration from 10µM
T1 construct: expressed in transfected cells
T1 sequence (P25090 1-351): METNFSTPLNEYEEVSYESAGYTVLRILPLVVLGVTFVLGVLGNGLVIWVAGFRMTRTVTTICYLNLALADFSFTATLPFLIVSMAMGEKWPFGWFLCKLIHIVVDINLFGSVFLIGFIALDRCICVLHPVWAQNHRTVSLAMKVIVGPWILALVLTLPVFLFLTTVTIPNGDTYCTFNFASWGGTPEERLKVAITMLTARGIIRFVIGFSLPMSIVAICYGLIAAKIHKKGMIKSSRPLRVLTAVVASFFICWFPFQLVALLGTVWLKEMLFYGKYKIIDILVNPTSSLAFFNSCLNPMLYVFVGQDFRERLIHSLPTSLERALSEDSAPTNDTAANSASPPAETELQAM
In short: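 EC50 reflects the compound-evoked rise in Calcium 5 fluorescence over basal, recorded for 5 min on FLIPR and compared with no-compound wells. Dye-loaded hFPR2-Aq-CHO cells received half-log dilutions from 10 µM to 100 pM final in pH 7.4 HBSS buffer.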

EC50 [nM] | Structure (SMILES)
35 | COc1ccc([C@@H]2CN(C(=O)C3CCNCC3)CC[C@H]2NC(=O)Nc2ccccc2)nc1 (relative stereo) [Ex-151, trans-1-[3-(5-Methoxy-pyridin-2-yl)-1-(piperidine-4-carbonyl)-piperidin-4-yl]-3-phenyl-urea]
12 | O=C(Nc1ccccc1)N[C@@H]1CCN(CC(F)F)C[C@H]1c1ccc(Cl)cn1 (relative stereo) [Ex-153, trans-1-[3-(5-Chloro-pyridin-2-yl)-1-(2,2-difluoro-ethyl)-piperidin-4-yl]-3-phenyl-urea]
10 | COCCN1CC[C@@H](NC(=O)Nc2ccc(C#N)cc2)[C@H](c2ccc(OC)cn2)C1 (relative stereo) [Ex-154, trans-1-(4-Cyano-phenyl)-3-[1-(2-methoxy-ethyl)-3-(5-methoxy-pyridin-2-yl)-piperidin-4-yl]-urea]
0.09 | COc1ccc([C@@H]2CN(CC3(C#N)CC3)CC[C@H]2NC(=O)Nc2ccc(Cl)cc2)nc1 (relative stereo) [Ex-155, trans-1-(4-Chlorophenyl)-3-[1-[(1-cyano-cyclopropyl)-methyl]-3-(5-methoxy-pyridin-2-yl)-piperidin-4-yl]-urea]
58 | COc1ccc([C@@H]2CN(C(=O)C3CCN(C)CC3)CC[C@H]2NC(=O)Nc2ccccc2)nc1 (relative stereo) [Ex-156, trans-1-[3-(5-Methoxy-pyridin-2-yl)-1-(1-methyl-piperidine-4-carbonyl)-piperidin-4-yl]-3-phenyl-urea]
81 | COc1ccc([C@@H]2CN(C(=O)CN(C)C)CC[C@H]2NC(=O)Nc2ccccc2)nc1 (relative stereo) [Ex-157, trans-1-[1-(2-Dimethylamino-acetyl)-3-(5-methoxy-pyridin-2-yl)-piperidin-4-yl]-3-phenyl-urea]
31 | COCCCN1CC[C@@H](NC(=O)Nc2ccccc2)[C@H](c2ccc(OC)cn2)C1 (relative stereo) [Ex-158, trans-1-[1-(3-Methoxy-propyl)-3-(5-methoxy-pyridin-2-yl)-piperidin-4-yl]-3-phenyl-urea]
57 | COc1ccc([C@@H]2CN(CCCO)CC[C@H]2NC(=O)Nc2ccccc2)nc1 (relative stereo) [Ex-159, trans-1-[1-(3-Hydroxy-propyl)-3-(5-methoxy-pyridin-2-yl)-piperidin-4-yl]-3-phenyl-urea]
88 | COc1ccc([C@@H]2CN(CCS(C)(=O)=O)CC[C@H]2NC(=O)Nc2ccccc2)nc1 (relative stereo) [Ex-160, trans-1-[3-(5-Methoxy-pyridin-2-yl)-1-(2-methylsulfonyl-ethyl)-piperidin-4-yl]-3-phenyl-urea]
28 | COc1ccc([C@@H]2CN(CC3COC3)CC[C@H]2NC(=O)Nc2ccccc2)nc1 (relative stereo) [Ex-161, trans-1-[3-(5-Methoxy-pyridin-2-yl)-1-(oxetan-3-yl-methyl)-piperidin-4-yl]-3-phenyl-urea]
0.8 | COc1ccc([C@@H]2CN(CC3(O)CC3)CC[C@H]2NC(=O)Nc2ccc(Cl)cc2)nc1 (relative stereo) [Ex-163, trans-1-(4-Chlorophenyl)-3-[1-[(1-hydroxy-cyclopropyl)-methyl]-3-(5-methoxy-pyridin-2-yl)-piperidin-4-yl]-urea]
56 | COc1ccc([C@@H]2CN(CCO)CC[C@H]2NC(=O)Nc2ccccc2)nc1 (relative stereo) [Ex-164, trans-1-[1-(2-Hydroxy-ethyl)-3-(5-methoxy-pyridin-2-yl)-piperidin-4-yl]-3-phenyl-urea]
85 | O=C(Nc1ccccc1)N[C@@H]1CCN(C(=O)C2CCNCC2)C[C@H]1c1ccc(Cl)cn1 (relative stereo) [Ex-167, trans-1-[3-(5-Chloro-pyridin-2-yl)-1-(piperidine-4-carbonyl)-piperidin-4-yl]-3-phenyl-urea]
0.5 | COc1ccc([C@@H]2CN(C3(C#N)CC3)CC[C@H]2NC(=O)Nc2ccc(Cl)cc2)nc1 (relative stereo) [Ex-180, trans-1-(4-Chlorophenyl)-3-[1-(1-cyano-cyclopropyl)-3-(5-methoxy-pyridin-2-yl)-piperidin-4-yl]-urea]
0.9 | COc1ccc([C@@H]2CN(C3(C(N)=O)CC3)CC[C@H]2NC(=O)Nc2ccc(Cl)cc2)nc1 (relative stereo) [Ex-181, trans-1-[4-[[(4-Chlorophenyl)-carbamoyl]amino]-3-(5-methoxy-pyridin-2-yl)-piperidin-1-yl]-cyclopropane-1-carboxylic acid amide]
2 | COc1ccc([C@@H]2CN(CC3(O)CC3)CC[C@H]2NC(=O)Nc2cc(C)ns2)nc1 (relative stereo) [Ex-182, trans-1-[1'-(1-hydroxy-cyclopropylmethyl)-5-methoxy-1',2',3',4',5',6'-hexahydro-[2,3']bipyridinyl-4'-yl]-3-(3-methyl-isothiazol-5-yl)-urea]
1.4 | CS(=O)(=O)n1ccc(CN2CC[C@@H](NC(=O)Nc3ccccc3)[C@H](c3ccc(Cl)cn3)C2)n1 (relative stereo) [Ex-184, trans-1-[5-chloro-1'-(1-methanesulfonyl-1H-pyrazol-3-ylmethyl)-1',2',3',4',5',6'-hexahydro-[2,3']bipyridinyl-4'-yl]-3-phenyl-urea]
27 | O=C(Nc1ccccc1)N[C@@H]1CCN(CC2CNC2)C[C@H]1c1ccc(Cl)cn1 (relative stereo) [Ex-186, trans-1-(1'-azetidin-3-ylmethyl-5-chloro-1',2',3',4',5',6'-hexahydro-[2,3']bipyridinyl-4'-yl)-3-phenyl-urea]
1 | COCCCN1CC[C@@H](NC(=O)Nc2ccc(Cl)cc2)[C@H](c2ncc(OC)cc2F)C1 (relative stereo) [Ex-193, trans-1-(4-chlorophenyl)-3-[3-fluoro-5-methoxy-1'-(3-methoxy-propyl)-1',2',3',4',5',6'-hexahydro-[2,3']bipyridinyl-4'-yl]-urea]

Structure (SMILES) | EC50 [nM]
COc1ccc([C@@H]2CN(CC(F)F)CC[C@H]2NC(=O)Nc2ccccc2)nc1 (relative stereo) [Ex-150, trans-1-[1-(2,2-Difluoro-ethyl)-3-(5-methoxy-pyridin-2-yl)-piperidin-4-yl]-3-phenyl-urea] | 3

same assay, conditions: agonistic response at 0.1µM

activation at 0.1 µM [%] | Structure (SMILES)
25 | COc1ccc([C@@H]2CN(C3CCS(=O)(=O)CC3)CC[C@H]2NC(=O)Nc2cc(C)ns2)nc1 (relative stereo) [Ex-149, trans-1-[1-(1,1-Dioxo-thian-4-yl)-3-(5-methoxy-pyridin-2-yl)-piperidin-4-yl]-3-(3-methyl-isothiazol-5-yl)-urea]
25 | O=C(Nc1ccccc1)N[C@@H]1CCN(CCO)C[C@H]1c1ccc(Cl)cn1 (relative stereo) [Ex-152, trans-1-[3-(5-Chloro-pyridin-2-yl)-1-(2-hydroxy-ethyl)-piperidin-4-yl]-3-phenyl-urea]
34 | COc1ccc([C@@H]2CN(C3COC3)CC[C@H]2NC(=O)Nc2ccccc2)nc1 (relative stereo) [Ex-162, trans-1-[3-(5-Methoxy-pyridin-2-yl)-1-(oxetan-3-yl)-piperidin-4-yl]-3-phenyl-urea]
23 | COc1ccc([C@@H]2CNCC[C@H]2NC(=O)Nc2ccc(Cl)cc2)nc1 (relative stereo) [Ex-169, trans-1-(4-Chlorophenyl)-3-[3-(5-methoxy-pyridin-2-yl)-piperidin-4-yl]-urea]
3 | COc1ccc([C@@H]2CN(CC(N)=O)CC[C@H]2NC(=O)Nc2ccc(Cl)cc2)nc1 (relative stereo) [Ex-171, trans-2-[4-[[(4-Chlorophenyl)-carbamoyl]amino]-3-(5-methoxy-pyridin-2-yl)-piperidin-1-yl]-acetamide]
44 | COc1ccc([C@@H]2CN(CC3CC3)CC[C@H]2NC(=O)Nc2ccc(Cl)cc2)nc1 (relative stereo) [Ex-173, trans-1-(4-Chlorophenyl)-3-[1-(cyclopropyl-methyl)-3-(5-methoxy-pyridin-2-yl)-piperidin-4-yl]-urea]
17 | COc1ccc([C@@H]2CN(CC(F)F)CC[C@H]2NC(=O)Nc2ccc(C#N)cc2)nc1 (relative stereo) [Ex-175, trans-1-(4-Cyano-phenyl)-3-[1-(2,2-difluoro-ethyl)-3-(5-methoxy-pyridin-2-yl)-piperidin-4-yl]-urea]
5 | COc1ccc([C@@H]2CN(CC(C)(C)O)CC[C@H]2NC(=O)Nc2cc(C)ns2)nc1 (relative stereo) [Ex-176, trans-1-[1-(2-Hydroxy-2-methyl-propyl)-3-(5-methoxy-pyridin-2-yl)-piperidin-4-yl]-3-(3-methyl-isothiazol-5-yl)-urea]
0.2 | COc1ccc([C@@H]2CN(CC(C)(C)O)CC[C@H]2NC(=O)Nc2ccc(Cl)cc2)nc1 (relative stereo) [Ex-178, trans-1-(4-Chlorophenyl)-3-[1-(2-hydroxy-2-methyl-propyl)-3-(5-methoxy-pyridin-2-yl)-piperidin-4-yl]-urea]
19 | O=C(Nc1ccccc1)N[C@@H]1CCN(C2CNC2)C[C@H]1c1ccc(Cl)cn1 (relative stereo) [Ex-185, trans-1-(1'-azetidin-3-yl-5-chloro-1',2',3',4',5',6'-hexahydro-[2,3']bipyridinyl-4'-yl)-3-phenyl-urea]
8 | COc1ccc([C@@H]2CN(C(=O)CN(C)C)CC[C@H]2NC(=O)Nc2ccc(Cl)cc2)nc1 (relative stereo) [Ex-190, trans-1-(4-chlorophenyl)-3-[1-[2-(dimethylamino)acetyl]-3-(5-methoxypyridin-2-yl)piperidin-4-yl]urea]
